Measured values: the supplement of paper PMC10307832

Columns and labels:
Experiment in all cases: relative viability (nuclei count vs DMSO), 5 days (fraction); higher = more cells survive
Carboplatin = compound: C1CC(C1)(C(=O)O)C(=O)O.[NH2-].[NH2-].[Pt+2] [Carboplatin]
In short: (§1)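 Acceptance criteria were a control CV below 25% and at least one doubling per plate. Lung cancer cell lines in 1536-well plates got five library-drug doses (not always all listed) √10 apart by pinning and were left 5 days with no medium change. Viability divides treated-well nuclei by vehicle-well nuclei and is the median across plates. Nuclei were counted by MetaXpress from 4× Hoechst images.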

GSK126 = compound: CC[C@H](C)N1C=C(C2=C(C=C(C=C21)C3=CN=C(C=C3)N4CCNCC4)C(=O)NCC5=C(C=C(NC5=O)C)C)C [GSK126]
In short: as §1

MLN4924 = compound: NS(=O)(=O)OC[C@@H]1C[C@@H](n2ccc3c(N[C@H]4CCc5ccccc54)ncnc32)C[C@@H]1O [MLN4924]
In short: as §1

GSK126 + Crizotinib = compound: CC[C@H](C)N1C=C(C2=C(C=C(C=C21)C3=CN=C(C=C3)N4CCNCC4)C(=O)NCC5=C(C=C(NC5=O)C)C)C [GSK126] + C[C@@H](Oc1cc(-c2cnn(C3CCNCC3)c2)cnc1N)c1c(Cl)ccc(F)c1Cl [Crizotinib] (partner 1 µM)
In short: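 Medians of duplicate plates are given as relative viability. That measure is the nuclei count in treated wells divided by the count in vehicle wells. Counts were taken on 4× images of lung cancer cell lines in 1536-well plates, 5 days after pin-tool dosing the day after seeding with one drug alone or a fixed anchor-drug dose plus five library-drug doses (not always all listed) in √10 steps.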

Row | Cell Line | relative viability (Carboplatin; 0.08 µM) | relative viability (Carboplatin; 0.253 µM) | relative viability (Carboplatin; 0.8 µM) | relative viability (Carboplatin; 2.53 µM) | relative viability (Carboplatin; 8 µM) | relative viability (GSK126; 0.08 µM) | relative viability (GSK126; 0.253 µM) | relative viability (GSK126; 0.8 µM) | relative viability (GSK126; 2.53 µM) | relative viability (GSK126; 8 µM) | relative viability (MLN4924; 0.04 µM) | relative viability (MLN4924; 0.1265 µM) | relative viability (MLN4924; 0.4 µM) | relative viability (MLN4924; 1.265 µM) | relative viability (MLN4924; 4 µM) | relative viability (GSK126 + Crizotinib; first compound 0.08 µM) | relative viability (GSK126 + Crizotinib; first compound 0.253 µM) | relative viability (GSK126 + Crizotinib; first compound 0.8 µM) | relative viability (GSK126 + Crizotinib; first compound 2.53 µM) | relative viability (GSK126 + Crizotinib; first compound 8 µM)
1 | NCI-H2228 | 1.27 | 1.16 | 0.91 | 0.941 | 0.687 | 1.21 | 0.992 | 1.04 | 1.12 | 1.07 | 0.723 | 1.08 | 0.435 | 0.171 | 0.205 | 0.547 | 0.492 | 0.368 | 0.573 | 0.458
2 | NCI-H2347 | 1.05 | 1 | 1.07 | 1.06 | 0.909 | 1.08 | 0.976 | 1.04 | 1.05 | 1 | 0.963 | 0.975 | 0.584 | 0.406 | 0.386 | 0.706 | 0.667 | 0.658 | 0.708 | 0.559
3 | NCI-H2405 | 1.1 | 1 | 1.05 | 1.03 | 0.885 | 1.03 | 0.946 | 0.98 | 0.984 | 1.03 | 1.06 | 0.979 | 0.586 | 0.29 | 0.27 | 0.947 | 0.753 | 0.816 | 0.817 | 0.814
4 | NCI-H3122 | 1.01 | 1.01 | 1.02 | 1.01 | 0.968 | 1.03 | 1 | 0.966 | 1.02 | 1 | 0.92 | 0.585 | 0.325 | 0.139 | 0.135 | 0.251 | 0.341 | 0.292 | 0.267 | 0.347
5 | PC-3 [JPC-3] | 1.14 | 1.08 | 1.05 | 0.992 | 0.96 | 1.03 | 0.999 | 1.06 | 1.03 | 1.12 | 0.994 | 1.1 | 0.397 | 0.432 | 0.396 | 0.993 | 0.997 | 0.982 | 0.956 | 1.02
6 | PC-14 | 1.09 | 0.998 | 0.997 | 0.684 | 0.309 | 1.02 | 1.01 | 0.935 | 1.03 | 0.942 | 1.04 | 0.93 | 0.624 | 0.153 | 0.111 | 0.839 | 0.989 | 0.922 | 0.892 | 0.799
7 | RERF-LC-KJ | 0.978 | 1.02 | 0.939 | 0.88 | 0.702 | 1.12 | 1.1 | 1.02 | 1.01 | 1.05 | 0.879 | 0.738 | 0.233 | 0.211 | 0.228 | 0.841 | 0.896 | 0.826 | 0.785 | 0.838
8 | SK-LU-1 | 1.16 | 1.07 | 1.06 | 0.975 | 0.802 | 1.01 | 1.05 | 1.02 | 1.14 | 1.08 | 0.99 | 0.799 | 0.369 | 0.191 | 0.201 | 1.01 | 0.935 | 0.949 | 1.13 | 1.06
9 | SK-MES-1 | 1.07 | 0.991 | 1.02 | 0.974 | 0.918 | 1.03 | 0.999 | 0.985 | 1.04 | 1.08 | 0.999 | 0.846 | 0.563 | 0.222 | 0.221 | 1.01 | 0.971 | 0.931 | 0.925 | 1.05
10 | SW 1573 | 1.05 | 1.02 | 0.992 | 0.972 | 0.702 | 1.21 | 1.08 | 1.02 | 1.05 | 1.24 | 1.16 | 0.954 | 0.332 | 0.0817 | 0.0856 | 0.868 | 0.82 | 0.751 | 0.84 | 0.785
